Laboratory results: ChEMBL document CHEMBL1133545, “Inhibition of monoamine oxidases by functionalized coumarin derivatives: biological activities, QSARs, and 3D-QSARs” (J Med Chem, 2000)

Tests used:
[1] = target: T1, Amine oxidase [flavin-containing] A (Rattus norvegicus, UniProt P21396)
T1 sequence (P21396 whole entry): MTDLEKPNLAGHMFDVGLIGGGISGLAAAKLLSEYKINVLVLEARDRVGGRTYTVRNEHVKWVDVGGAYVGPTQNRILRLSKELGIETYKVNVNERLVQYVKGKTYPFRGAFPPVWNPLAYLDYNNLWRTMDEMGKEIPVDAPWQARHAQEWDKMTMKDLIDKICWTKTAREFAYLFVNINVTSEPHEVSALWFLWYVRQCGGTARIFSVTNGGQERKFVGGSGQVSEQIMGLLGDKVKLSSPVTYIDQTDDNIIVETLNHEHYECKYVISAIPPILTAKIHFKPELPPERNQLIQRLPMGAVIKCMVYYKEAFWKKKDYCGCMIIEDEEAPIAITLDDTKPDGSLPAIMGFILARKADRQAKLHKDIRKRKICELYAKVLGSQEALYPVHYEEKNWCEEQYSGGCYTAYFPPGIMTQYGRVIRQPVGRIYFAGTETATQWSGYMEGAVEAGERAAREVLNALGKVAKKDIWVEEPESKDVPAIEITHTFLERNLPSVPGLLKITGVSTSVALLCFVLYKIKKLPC

[2] = target: T2, Amine oxidase [flavin-containing] B (Rattus norvegicus, UniProt P19643)
T2 sequence (P19643 whole entry): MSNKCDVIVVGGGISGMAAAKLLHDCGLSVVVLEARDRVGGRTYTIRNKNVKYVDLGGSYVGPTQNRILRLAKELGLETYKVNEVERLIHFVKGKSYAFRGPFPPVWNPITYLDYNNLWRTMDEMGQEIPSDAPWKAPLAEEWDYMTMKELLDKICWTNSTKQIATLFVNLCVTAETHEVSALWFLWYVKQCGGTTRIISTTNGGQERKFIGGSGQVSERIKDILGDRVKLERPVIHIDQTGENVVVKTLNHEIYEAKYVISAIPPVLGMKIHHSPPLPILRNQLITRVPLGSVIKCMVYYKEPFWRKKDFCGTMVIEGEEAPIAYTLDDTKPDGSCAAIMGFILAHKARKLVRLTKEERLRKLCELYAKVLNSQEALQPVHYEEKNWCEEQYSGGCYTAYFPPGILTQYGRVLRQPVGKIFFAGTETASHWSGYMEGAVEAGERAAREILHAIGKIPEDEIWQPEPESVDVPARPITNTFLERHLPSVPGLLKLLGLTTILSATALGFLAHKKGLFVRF

[3] = target: T1, Amine oxidase [flavin-containing] A; remark: listed apart in the source
Description: Compound was tested for its inhibitory effect on Monoamine oxidase A at 15 uM

[4] = target: T2, Amine oxidase [flavin-containing] B; remark: listed apart in the source
[5] = target: T1, Amine oxidase [flavin-containing] A; remark: listed apart in the source
Description: Compound was tested for its inhibitory effect on Monoamine oxidase A at 1 uM

[6] = target: T1, Amine oxidase [flavin-containing] A; remark: listed apart in the source
Description: Compound was tested for its inhibitory effect on MAO-A ( Monoamine Oxidase) at 50 uM

[7] = target: T2, Amine oxidase [flavin-containing] B; remark: listed apart in the source
Description: Compound was tested for its inhibitory effect on MAO-B ( Monoamine Oxidase) at 4 uM

[8] = target: T1, Amine oxidase [flavin-containing] A; remark: listed apart in the source
Description: Compound was tested for its inhibitory effect on Monoamine oxidase A at 30 uM

[9] = target: T1, Amine oxidase [flavin-containing] A; remark: listed apart in the source
Description: Compound was tested for its inhibitory effect on Monoamine oxidase A at 20 uM)

[10] = target: T2, Amine oxidase [flavin-containing] B; remark: listed apart in the source
Description: (§1) Compound was tested for its inhibitory effect on Monoamine oxidase B at 3 uM

[11] = target: T1, Amine oxidase [flavin-containing] A; remark: listed apart in the source
Description: Compound was tested for its inhibitory effect on Monoamine oxidase A at 3 uM

[12] = target: T1, Amine oxidase [flavin-containing] A; remark: listed apart in the source
Description: Compound was tested for its inhibitory effect on Monoamine oxidase A at 50 uM

[13] = target: T1, Amine oxidase [flavin-containing] A; remark: listed apart in the source
Description: Compound was tested for its inhibitory effect on Monoamine oxidase A at 2 uM

[14] = target: T2, Amine oxidase [flavin-containing] B; remark: listed apart in the source
Description: as §1

[15] = target: T1, Amine oxidase [flavin-containing] A; remark: listed apart in the source
Description: Compound was tested for its inhibitory effect on Monoamine oxidase A at 8 uM

[16] = target: T2, Amine oxidase [flavin-containing] B; remark: listed apart in the source
Description: (§2) Compound was tested for its inhibitory effect on MAO-B ( Monoamine Oxidase) at 100 uM

[17] = target: T1, Amine oxidase [flavin-containing] A; remark: listed apart in the source
Description: (§3) Compound was tested for its inhibitory effect on MAO-A ( Monoamine Oxidase) at 100 uM

[18] = target: T1, Amine oxidase [flavin-containing] A; remark: listed apart in the source
Description: Compound was tested for its inhibitory effect on Monoamine oxidase A at 5 uM

[19] = target: T2, Amine oxidase [flavin-containing] B; remark: listed apart in the source
Description: Compound was tested for its inhibitory effect on Monoamine oxidase B at 40 uM

[20] = target: T2, Amine oxidase [flavin-containing] B; remark: listed apart in the source
Description: as §2

[21] = target: T1, Amine oxidase [flavin-containing] A; remark: listed apart in the source
Description: as §3

Row | Structure (SMILES) | IC50 [1] | IC50 [2] | further results
1 | Cc1c(C)c2ccc(OCCc3ccccc3)cc2oc1=O | 1000 nM | – | –
2 | Cc1cc(=O)c2cc(OCc3ccccc3)ccc2o1 | 21900 nM | 126 nM | –
3 | O=c1cc(O)c2ccc(OCc3ccccc3)cc2o1 | – | 1580 nM | inhibition at 15 µM [3]: 26%
4 | O=c1cc(-c2ccccc2)oc2cc(OCc3ccccc3)ccc12 | – | – | inhibition at 1 µM [4]: 6%; inhibition at 1 µM [5]: 6%
5 | Cc1c(C)c2ccc(OCc3ccc(F)c(O)c3)cc2oc1=O | 115 nM | 7.41 nM | –
6 | COc1cc2ccc(=O)oc2cc1OCc1ccccc1 | – | 6760 nM | inhibition at 50 µM [6]: 18%
7 | O=C1CCc2ccc(OCc3ccccc3)cc2O1 | – | – | inhibition at 4 µM [7]: 20%
8 | c1ccc(COc2ccc3c(c2)OCO3)cc1 | – | 2400 nM | inhibition at 30 µM [8]: 18%
9 | O=C1OCc2ccc(OCc3ccccc3)cc21 | 3630 nM | 234 nM | –
10 | O=c1ccoc2cc(OCc3ccccc3)ccc12 | 16200 nM | 1050 nM | –
11 | O=c1oc2cc(OCc3ccccc3)ccc2s1 | – | 58900 nM | inhibition at 20 µM [9]: 0%
12 | O=C1CCc2ccc(OCc3ccccc3)cc2N1 | 102000 nM | 1050 nM | –
13 | Cc1c(-c2ccccc2)c(=O)oc2cc(OCc3ccccc3)ccc12 | – | – | inhibition at 3 µM [10]: 8%; inhibition at 3 µM [11]: 4%
14 | c1ccc(COc2ccc3ccoc3c2)cc1 | – | 1820 nM | inhibition at 50 µM [12]: 30%
15 | CC1C(=O)Nc2cc(OCc3ccccc3)ccc2C1C (centres undefined) | – | 631 nM | inhibition at 2 µM [13]: 0%
16 | O=c1cc(C(F)(F)F)c2ccc(OCc3ccccc3)cc2o1 | – | 1380 nM | –
17 | O=c1cc(-c2ccccc2)oc2ccc(OCc3ccccc3)cc12 | – | – | inhibition at 3 µM [14]: 38%
18 | c1ccc(COc2ccc3ccccc3c2)cc1 | – | 2570 nM | inhibition at 8 µM [15]: 0%
19 | O=c1ccc2cc(O[C@H]3O[C@H](CO)[C@@H](O)[C@@H](O)[C@@H]3O)c(OCc3ccccc3)cc2o1 | – | – | inhibition at 100 µM [16]: 11%; inhibition at 100 µM [17]: 15%
20 | Cc1c(C)c2ccc(OCc3cccc(N)c3)cc2oc1=O | 1000 nM | 34.7 nM | –
21 | O=c1ccoc2ccc(OCc3ccccc3)cc12 | 6760 nM | 562 nM | –
22 | O=C1NC(=O)c2cc(OCc3ccccc3)ccc21 | – | – | inhibition at 5 µM [18]: 25%
23 | Cc1ccc(S(=O)(=O)Nc2ccc3c(C)c(C)c(=O)oc3c2)cc1 | 67600 nM | – | inhibition at 40 µM [19]: 29%
24 | c1ccc(COc2ccc3c(c2)OCC3)cc1 | 39800 nM | 501 nM | –
25 | Cc1c(C)c2ccc(OC(C)c3ccccc3)cc2oc1=O (centres undefined) | 3550 nM | 324 nM | –
26 | Cc1c(C)c2ccc(/C=C/c3ccccc3)cc2oc1=O | 407 nM | 28.2 nM | –
27 | O=c1ccc2cc(OCc3ccccc3)c(O)cc2o1 | 23400 nM | 2040 nM | –
28 | CC(=O)Nc1cccc(COc2ccc3c(C)c(C)c(=O)oc3c2)c1 | 7080 nM | – | –
29 | O=c1ccc2ccccc2o1 [COUMARIN] | 40700 nM | 12000 nM | –
30 | O=c1ccc2cc(O[C@@H]3O[C@H](CO)[C@@H](O)[C@H](O)[C@H]3O)c(O)cc2o1 [ESCULIN] | – | – | inhibition at 100 µM [20]: 7%; inhibition at 100 µM [21]: 9%
